System: angioedema in CSU patients
Assay: Phase 2 CSU study: angioedema activity score over 7 days (AAS7)
Assay type: in vivo, human
Parameters: AAS7, Median / AAS7 Change from baseline, Median: scale not given here
Conditions: Omalizumab-Naïve Population
Description: The study comprises a 12 week, randomized, double-blind, placebo-controlled, multi-center, dose-ranging efficacy and safety phase, followed by a 40 week open label extension (OLE) phase (see FIG. 1). The study consists of three phases and an optional OLE phase. […] The weekly angioedema activity score (AAS7) was proposed as a tertiary endpoint. […] Patients were to complete the AAS using the e-diary. The e-diary was to be used once daily on the same time of each day recording of participant's answers to the angioedema activity score over 7 days (AAS7) questionnaire.

Structure (SMILES): CC(C)(C=C(C#N)C(=O)N1CCC[C@@H](n2nc(-c3ccc(Oc4ccccc4)cc3F)c3c(N)ncnc32)C1)N1CCN(C2COC2)CC1 [rilzabrutinib, (R)-2-[3-[4-amino-3-(2-fluoro-4-phenoxy-phenyl)pyrazolo[3,4-d]pyrimidin-1-yl]piperidine-1-carbonyl]-4-methyl-4-[4-(oxetan-3-yl)piperazin-1-yl]pent-2-enenitrile]
- AAS7, Median (400 mg BID, Week 10): 0.00
- AAS7 Change from baseline, Mean (SD) (400 mg BID, Week 10): −29.84 (25.74)
- AAS7 Change from baseline, Median (400 mg BID, Week 10): −24.00
- AAS7 Percent change from baseline, Mean (SD) (400 mg BID, Week 10): −45.78 (130.13) %
- AAS7 Percent change from baseline, Median (400 mg BID, Week 10): −100.00%
- AAS7, Median (400 mg BID, Week 11): 0.00
- AAS7 Change from baseline, Mean (SD) (400 mg BID, Week 11): −35.05 (24.68)
- AAS7 Change from baseline, Median (400 mg BID, Week 11): −29.17
- AAS7 Percent change from baseline, Mean (SD) (400 mg BID, Week 11): −73.13 (48.67) %
- AAS7 Percent change from baseline, Median (400 mg BID, Week 11): −100.00%
- AAS7, Median (400 mg BID, Week 12): 0.00
- AAS7 Change from baseline, Mean (SD) (400 mg BID, Week 12): −35.73 (26.59)
- AAS7 Change from baseline, Median (400 mg BID, Week 12): −37.00
- AAS7 Percent change from baseline, Mean (SD) (400 mg BID, Week 12): −76.62 (36.34) %
- AAS7 Percent change from baseline, Median (400 mg BID, Week 12): −100.00%
- AAS7, Mean (SD) (400 mg QPM, End of Study): 17.46 (29.82)
- AAS7, Median (400 mg QPM, End of Study): 4.00
- AAS7 Change from baseline, Mean (SD) (400 mg QPM, End of Study): −4.04 (35.07)
- AAS7 Change from baseline, Median (400 mg QPM, End of Study): −8.50
- AAS7 Percent change from baseline, Mean (SD) (400 mg QPM, End of Study): −14.64 (160.23) %
- AAS7 Percent change from baseline, Median (400 mg QPM, End of Study): −92.00%
- AAS7, Median (400 mg QPM, Week 1): 39.00
- AAS7 Change from baseline, Mean (SD) (400 mg QPM, Week 1): −18.63 (22.01)
- AAS7 Change from baseline, Median (400 mg QPM, Week 1): −19.00
- AAS7 Percent change from baseline, Mean (SD) (400 mg QPM, Week 1): −30.81 (44.93) %
- AAS7 Percent change from baseline, Median (400 mg QPM, Week 1): −35.35%
- AAS7, Median (400 mg QPM, Week 2): 31.50
- AAS7 Change from baseline, Mean (SD) (400 mg QPM, Week 2): −20.23 (24.12)
- AAS7 Change from baseline, Median (400 mg QPM, Week 2): −11.00
- AAS7 Percent change from baseline, Mean (SD) (400 mg QPM, Week 2): −36.22 (43.96) %
- AAS7 Percent change from baseline, Median (400 mg QPM, Week 2): −31.31%
- AAS7, Median (400 mg QPM, Week 3): 34.00
- AAS7 Change from baseline, Mean (SD) (400 mg QPM, Week 3): −20.88 (26.24)
- AAS7 Change from baseline, Median (400 mg QPM, Week 3): −13.00
- AAS7 Percent change from baseline, Mean (SD) (400 mg QPM, Week 3): −29.46 (63.83) %
- AAS7 Percent change from baseline, Median (400 mg QPM, Week 3): −26.00%
- AAS7, Median (400 mg QPM, Week 4): 35.00
- AAS7 Change from baseline, Mean (SD) (400 mg QPM, Week 4): −23.93 (24.26)
- AAS7 Change from baseline, Median (400 mg QPM, Week 4): −17.00
- AAS7 Percent change from baseline, Mean (SD) (400 mg QPM, Week 4): −46.35 (39.61) %
- AAS7 Percent change from baseline, Median (400 mg QPM, Week 4): −46.27%
- AAS7, Median (400 mg QPM, Week 5): 23.50
- AAS7 Change from baseline, Mean (SD) (400 mg QPM, Week 5): −29.64 (28.55)
- AAS7 Change from baseline, Median (400 mg QPM, Week 5): −17.00
- AAS7 Percent change from baseline, Mean (SD) (400 mg QPM, Week 5): −55.69 (41.16) %
- AAS7 Percent change from baseline, Median (400 mg QPM, Week 5): −59.46%
- AAS7, Median (400 mg QPM, Week 6): 24.38
- AAS7 Change from baseline, Mean (SD) (400 mg QPM, Week 6): −28.36 (28.62)
- AAS7 Change from baseline, Median (400 mg QPM, Week 6): −23.63
- AAS7 Percent change from baseline, Mean (SD) (400 mg QPM, Week 6): −47.92 (45.31) %
- AAS7 Percent change from baseline, Median (400 mg QPM, Week 6): −55.14%
- AAS7, Median (400 mg QPM, Week 7): 30.00
- AAS7 Change from baseline, Mean (SD) (400 mg QPM, Week 7): −26.95 (30.21)
- AAS7 Change from baseline, Median (400 mg QPM, Week 7): −28.00
- AAS7 Percent change from baseline, Mean (SD) (400 mg QPM, Week 7): −33.18 (69.78) %
- AAS7 Percent change from baseline, Median (400 mg QPM, Week 7): −50.00%
- AAS7, Median (400 mg QPM, Week 8): 18.00
- AAS7 Change from baseline, Mean (SD) (400 mg QPM, Week 8): −29.80 (30.38)
- AAS7 Change from baseline, Median (400 mg QPM, Week 8): −28.00
- AAS7 Percent change from baseline, Mean (SD) (400 mg QPM, Week 8): −49.05 (70.23) %
- AAS7 Percent change from baseline, Median (400 mg QPM, Week 8): −66.00%
- AAS7, Median (400 mg QPM, Week 9): 26.30
- AAS7 Change from baseline, Mean (SD) (400 mg QPM, Week 9): −28.66 (27.25)
- AAS7 Change from baseline, Median (400 mg QPM, Week 9): −29.00
- AAS7 Percent change from baseline, Mean (SD) (400 mg QPM, Week 9): −46.39 (66.49) %
- AAS7 Percent change from baseline, Median (400 mg QPM, Week 9): −56.26%
- AAS7, Median (400 mg QPM, Week 10): 28.00
- AAS7 Change from baseline, Mean (SD) (400 mg QPM, Week 10): −28.93 (28.14)
- AAS7 Change from baseline, Median (400 mg QPM, Week 10): −28.92
- AAS7 Percent change from baseline, Mean (SD) (400 mg QPM, Week 10): −46.90 (68.16) %
- AAS7 Percent change from baseline, Median (400 mg QPM, Week 10): −50.17%
- AAS7, Median (400 mg QPM, Week 11): 30.10
- AAS7 Change from baseline, Mean (SD) (400 mg QPM, Week 11): −29.18 (28.09)
- AAS7 Change from baseline, Median (400 mg QPM, Week 11): −32.40
- AAS7 Percent change from baseline, Mean (SD) (400 mg QPM, Week 11): −47.96 (69.01) %
- AAS7 Percent change from baseline, Median (400 mg QPM, Week 11): −52.90%
- AAS7, Median (400 mg QPM, Week 12): 26.83
- AAS7 Change from baseline, Mean (SD) (400 mg QPM, Week 12): −29.03 (28.74)
- AAS7 Change from baseline, Median (400 mg QPM, Week 12): −28.00
- AAS7 Percent change from baseline, Mean (SD) (400 mg QPM, Week 12): −48.34 (71.54) %
- AAS7 Percent change from baseline, Median (400 mg QPM, Week 12): −59.34%
- AAS7, Mean (SD) (400 mg TID, End of Study): 26.75 (33.68)
- AAS7, Median (400 mg TID, End of Study): 16.00
- AAS7 Change from baseline, Mean (SD) (400 mg TID, End of Study): −21.25 (14.29)
- AAS7 Change from baseline, Median (400 mg TID, End of Study): −27.00
- AAS7 Percent change from baseline, Mean (SD) (400 mg TID, End of Study): −58.11 (43.26) %
- AAS7 Percent change from baseline, Median (400 mg TID, End of Study): −66.21%
- AAS7, Median (400 mg TID, Week 1): 9.00
- AAS7 Change from baseline, Mean (SD) (400 mg TID, Week 1): −28.96 (27.34)
- AAS7 Change from baseline, Median (400 mg TID, Week 1): −26.00
- AAS7 Percent change from baseline, Mean (SD) (400 mg TID, Week 1): −56.39 (51.49) %
- AAS7 Percent change from baseline, Median (400 mg TID, Week 1): −89.41%
- AAS7, Median (400 mg TID, Week 2): 9.33
- AAS7 Change from baseline, Mean (SD) (400 mg TID, Week 2): −30.89 (28.32)
- AAS7 Change from baseline, Median (400 mg TID, Week 2): −27.00
- AAS7 Percent change from baseline, Mean (SD) (400 mg TID, Week 2): −58.84 (53.09) %
- AAS7 Percent change from baseline, Median (400 mg TID, Week 2): −81.97%
- AAS7, Median (400 mg TID, Week 3): 0.00
- AAS7 Change from baseline, Mean (SD) (400 mg TID, Week 3): −33.83 (29.99)
- AAS7 Change from baseline, Median (400 mg TID, Week 3): −27.00
- AAS7 Percent change from baseline, Mean (SD) (400 mg TID, Week 3): −69.93 (48.65) %
- AAS7 Percent change from baseline, Median (400 mg TID, Week 3): −100.00%
- AAS7, Median (400 mg TID, Week 4): 5.00
- AAS7 Change from baseline, Mean (SD) (400 mg TID, Week 4): −36.18 (24.55)
- AAS7 Change from baseline, Median (400 mg TID, Week 4): −27.00
- AAS7 Percent change from baseline, Mean (SD) (400 mg TID, Week 4): −76.56 (30.09) %
- AAS7 Percent change from baseline, Median (400 mg TID, Week 4): −93.33%
- AAS7, Median (400 mg TID, Week 5): 6.00
- AAS7 Change from baseline, Mean (SD) (400 mg TID, Week 5): −37.08 (26.17)
- AAS7 Change from baseline, Median (400 mg TID, Week 5): −30.00
- AAS7 Percent change from baseline, Mean (SD) (400 mg TID, Week 5): −73.55 (35.00) %
- AAS7 Percent change from baseline, Median (400 mg TID, Week 5): −88.24%
- AAS7, Median (400 mg TID, Week 6): 0.00
- AAS7 Change from baseline, Mean (SD) (400 mg TID, Week 6): −32.35 (30.51)
- AAS7 Change from baseline, Median (400 mg TID, Week 6): −27.00
- AAS7 Percent change from baseline, Mean (SD) (400 mg TID, Week 6): −63.91 (58.28) %
- AAS7 Percent change from baseline, Median (400 mg TID, Week 6): −100.00%
- AAS7, Median (400 mg TID, Week 7): 2.50
- AAS7 Change from baseline, Mean (SD) (400 mg TID, Week 7): −32.23 (26.57)

From patent US20260256792A1, “TREATMENT OF CHRONIC SPONTANEOUS URTICARIA BY ADMINISTERING (R)-2-[3-[4-AMINO-3-(2-FLUORO-4-PHENOXY-PHENYL)PYRAZOLO[3,4-D]PYRIMIDIN-1-YL]PIPERIDINE-1-CARBONYL]-4-METHYL-4-[4-(OXETAN-3-YL)PIPERAZIN-1-YL]PENT-2-ENENITRILE” (priority 2023, published 2026)
